For assay [1], the system named is 37622A1 NSCLC patient-derived xenografts. Description: 37622A1 patient derived NSCLC xenograft model. In kind it is in vivo, mouse. Particulars: 5 mg/kg Q4dx4. From the text: The effects of anti-Notch3 ADCs were examined in immunodeficient mice on the in vivo growth of human tumor xenografts that were established from fragments of freshly resected 37622A1 NSCLC tumors obtained in accordance with appropriate consent procedures (Asterand). The 37622A1 NSCLC patient-derived xenografts were subcutaneously passaged in vivo as fragments from animal to animal in nude (Nu/Nu) female mice. When the tumors reached a volume of 150 to 300 mm^3, they were staged to ensure uniformity of the tumor size among various treatment groups. The 37622A1 NSCLC patient-derived xenografts model was dosed intravenously four times every four days (Q4d×4) with PBS vehicle, humanized anti-Notch3 ADCs, control huNeg-8.8 ADCs and cisplatin at the doses provided in Table 19.
On the technique in general: In xenograft studies the graft and the host belong to different species.

In assay [2] the test system is N87 gastric xenografts. As to the kind of experiment: N87 gastric xenograft model. In kind it is in vivo, mouse. Particulars: for tumor volume: dose 5 mg/kg intravenously Q4d×4. The protocol: Similar in vivo experiments were performed with the N87 gastric cancer cell line as described above. To generate xenografts, nude (Nu/Nu) female mice were implanted subcutaneously with 8×10^6 N87 cells in 50% Matrigel (BD Biosciences).
The N87 gastric model was also dosed intravenously Q4d×4 with PBS vehicle, rat-human chimeric anti-Notch3 ADCs and control huNeg-8.8 ADCs, at a dose of 5 mg/kg as provided in FIG. 16D.
The N87 gastric model was also dosed intravenously Q4d×4 with PBS vehicle and rat-human chimeric anti-Notch3 ADCs ch28-mc0131, ch75-mc0131, ch28-m(H2O)c-0131 and ch75-m(H2O)c-0131 at a dose of 5 mg/kg as provided in FIG. 16E.

For assay [3], the system named is OVCAR3 ovarian xenografts. As to the kind of experiment: OVCAR3 ovarian xenograft model. Particulars: dose 20 mg/kg intraperitoneally Q7d×8.
Assay [4] has as its system MDA-MB-468 (breast cancer). As to the kind of experiment: In vitro cytotoxicity (MTS), MDA-MB-468. In kind it is cell-based, human. Particulars: Table 13; four days; LP = lacked potency. On the procedure:
(§1) The effects of anti-Notch3 ADCs were assessed on 1) cell lines endogenously expressing Notch3 protein: HCC2429 (lung cancer), OVCAR3 (ovarian cancer) and MDA-MB-468 (breast cancer), 2) cell lines engineered to over-express full length human Notch3 protein: MDA-MB-468/hNotch3 and U2OS/hNotch3, and 3) a negative control cell line (SW900) using an MTS cellular viability indicator (Promega, Madison, Wis.). These cell lines were cultured with increasing concentrations of anti-Notch3 ADCs comprising rat-human chimeric anti-Notch3 antibodies, ch28 and ch75, and humanized anti-Notch3 antibodies, hu28 and hu75, conjugated to various linker-payload combinations of the present invention. As a specificity control for the anti-Notch3-ADCs, non-targeted control-ADCs (huNeg8.8-ADCs or ch2H6-ADCs) were also tested on the same cell lines. After four days, viability of each culture was assessed. IC50 values were calculated by logistic non-linear regression, model #203 with XL fit v4.2 (IDBS, Guildford, Surry, UK) and presented as ng Ab/mL. The drug antibody ratio (DAR) is also provided.

Assay [5] deals with OVCAR3 (ovarian cancer). Description: In vitro cytotoxicity (MTS), OVCAR3. In kind it is cell-based, human. Particulars: Table 13; four days; LP = lacked potency. On the procedure:
as §1
(§2) This process generated the anti-Notch3 cysteine mutant ADCs: hu28-(L443C)-vc0101 and hu28-(L443C/κK183C)-vc0101. The activity of the anti-Notch3 cysteine mutant ADCs were assessed on cell lines endogenously expressing Notch3 protein: HCC2429 (lung cancer) and OVCAR3 (ovarian cancer) using an MTS cellular viability indicator as described in previous Examples.

In assay [6] the test system is HCC2429 (lung cancer). Description: In vitro cytotoxicity (MTS), HCC2429. Particulars: Table 13; four days; LP = lacked potency. The format is cell-based, human. On the procedure: as §1, §2

The source of these data is patent publication US9433687B2, “Anti-Notch3 antibodies and antibody-drug conjugates” (Pfizer Inc., priority 2012, dated 2016).

Take `N.N.[Cl][Pt][Cl]` [Cisplatin, reference compound]: the tumor volume in assay [1] (Day 4) was found to be 226 mm^3; in assay [1] (Day 7), 280 mm^3; in assay [1] (Day 11), 301 mm^3; in assay [1] (Day 14), 345 mm^3; in assay [1] (Day 18) it was 309 mm^3; in assay [1] (Day 21), 373 mm^3. In addition, the tumor volume worked out at 401 mm^3 in assay [1] (Day 25); 446 mm^3 in assay [1] (Day 28); 482 mm^3 in assay [1] (Day 32); 587 mm^3 in assay [1] (Day 35); 591 mm^3 in assay [1] (Day 39); 612 mm^3 in assay [1] (Day 42). In addition, the tumor volume came to 723 mm^3 in assay [1] (Day 46); 853 mm^3 in assay [1] (Day 49); 970 mm^3 in assay [1] (Day 53); 1215 mm^3 in assay [1] (Day 56); 1428 mm^3 in assay [1] (Day 60); 185 mm^3 in assay [1] (Day -1). In addition, the tumor volume worked out at 328 mm^3 in assay [2] (DAY 0); 414 mm^3 in assay [2] (DAY 4); 520 mm^3 in assay [2] (DAY 7); 501 mm^3 in assay [2] (DAY 11); 637 mm^3 in assay [2] (DAY 14).
On to `N.N.O=C([O-])C1(C(=O)[O-])CCC1.[Pt+2]` [carboplatin, reference compound], for which the tumor volume in assay [3] (DAY 0) was found to be 167 mm3; in assay [3] (DAY 3), 242 mm3; in assay [3] (DAY 6), 246 mm3; in assay [3] (DAY 11) it was 311 mm3; in assay [3] (DAY 14), 426 mm3; in assay [3] (DAY 18) it was 473 mm3. The tumor volume in assay [3] (DAY 21) is 475 mm3; in assay [3] (DAY 25) it was 552 mm3; in assay [3] (DAY 28) it was 640 mm3; in assay [3] (DAY 31) it was 692 mm3; in assay [3] (DAY 34) it was 811 mm3; in assay [3] (DAY 38), 869 mm3. The tumor volume in assay [3] (DAY 41) is reported as 906 mm3; in assay [3] (DAY 45), 1009 mm3; in assay [3] (DAY 49), 1149 mm3; in assay [3] (DAY 53) it was 1290 mm3; in assay [3] (DAY 56), 1370 mm3; in assay [3] (DAY 59), 1514 mm3. Besides, the tumor volume in assay [3] (DAY 63) was 1783 mm3; in assay [3] (DAY 67), 1844 mm3.

B1: ch75-MalPeg6C2-8261 (conjugate)
VH: QVKLLQSGAALVKPGASVKMSCKASGYAFTDYWVTWVKQSHGKSLEWIGEISPNSGGTNFNEKFKGKATLTVDKSTSTAYMELSRLTSEDSAIYYCTRGEIRYNWFAYWGQGTLVTVSS
VL: DIQMTQSPSSLSASVGDRVTITCKASQNVGNNIAWYQQKPGKAPKLLIYYASNRYTGVPSRFSGSGYGTDFTLTISSLQPEDFATYYCQRLYNSPFTFGGGTKVEIK
For the molecule B1, in assay [4], the “IC50 (ng Ab/mL) ± S.E.M., MDA-MB-468” value is given as 4255 ± 2375^ ng Ab/mL.

B2: ch75-mc3377 (conjugate)
VH: B1 VH
VL: B1 VL
As for B2, the “IC50 (ng Ab/mL) ± S.E.M., MDA-MB-468” value in assay [4] amounted to 560 ng Ab/mL.

B3: ch75-me0131 (conjugate)
VH: B1 VH
VL: B1 VL
B3: in assay [4], the “IC50 (ng Ab/mL) ± S.E.M., MDA-MB-468” value came out at 259 ng Ab/mL.

B4: ch28-mc0131 (conjugate)
VH: EVQLVESGGGLVQPGRSLTLSCVASGFTFRDYGMTWIRQAPGKGLTWVAYISSGSNYIYYAEAVKGRFTISRDNAKNTLYLQMTSLRSEDTALYFCTRRGPFVLDAWGQGASVTVSS
VL: DIQMTQSPSFLSASVGDRVTINCKASQSINRYLHWFQQKLGEAPKLLIYNANGLQTGIPSRFSGSGSGTDFTLTISSLQSEDVATYFCLQHNTWPDTFGAGTKLELK
On to B4, for which the “IC50 (ng Ab/mL) ± S.E.M., OVCAR3” value in assay [5] turned out to be 6 ± 1.0 ng Ab/mL. In addition, in assay [2] (5 mg/kg iv Q4dx4, FIG. 16D, 16E), the “growth of N87 gastric xenografts” value is recorded as “inhibited growth of N87 gastric xenografts”. In assay [4], the “IC50 (ng Ab/mL) ± S.E.M., MDA-MB-468” value came out at 35 ± 18.5 ng Ab/mL. Moreover, in assay [6], the “IC50 (ng Ab/mL) ± S.E.M., HCC2429” value was found to be 251 ± 77.5 ng Ab/mL.

B5: ch28-mc3377 (conjugate)
VH: B4 VH
VL: B4 VL
In the case of B5, the “IC50 (ng Ab/mL) ± S.E.M., OVCAR3” value in assay [5] turned out to be 14 ± 5.5 ng Ab/mL. In assay [4], the “IC50 (ng Ab/mL) ± S.E.M., MDA-MB-468” value was determined as 27 ± 11.3 ng Ab/mL.

B6: ch28-mc8261 (conjugate)
VH: B4 VH
VL: B4 VL
Consider B6, for which the “IC50 (ng Ab/mL) ± S.E.M., MDA-MB-468” value in assay [4] is on record as 12147 ± 4806.4 ng Ab/mL.

B7: ch28-MalPeg6C2-0131 (conjugate)
VH: B4 VH
VL: B4 VL
Take B7: the “IC50 (ng Ab/mL) ± S.E.M., OVCAR3” value in assay [5] stood at 10 ± 2.0 ng Ab/mL. Besides, the “IC50 (ng Ab/mL) ± S.E.M., MDA-MB-468” value in assay [4] is recorded as 10 ± 1.0 ng Ab/mL.

B8: ch28-MalPeg6C2-8261 (conjugate)
VH: B4 VH
VL: B4 VL
Turning to B8, in assay [4], the “IC50 (ng Ab/mL) ± S.E.M., MDA-MB-468” value amounted to 83 ± 35.5 ng Ab/mL.

B9: ch28-vc6780 (conjugate)
VH: B4 VH
VL: B4 VL
For the molecule B9, in assay [5], the “IC50 (ng Ab/mL) ± S.E.M., OVCAR3” value was found to be 90 ± 48.5 ng Ab/mL. The “IC50 (ng Ab/mL) ± S.E.M., MDA-MB-468” value in assay [4] worked out at 4407 ± 2128.2 ng Ab/mL. For the same molecule, the “IC50 (ng Ab/mL) ± S.E.M., HCC2429” value in assay [6] came out at 324 ± 78.9 ng Ab/mL.

B10: ch28-me0131 (conjugate)
VH: B4 VH
VL: B4 VL
Consider B10, for which the “IC50 (ng Ab/mL) ± S.E.M., OVCAR3” value in assay [5] was 8 ± 2.0 ng Ab/mL. Further, the “IC50 (ng Ab/mL) ± S.E.M., MDA-MB-468” value in assay [4] was determined as 24 ± 14.0 ng Ab/mL. The “IC50 (ng Ab/mL) ± S.E.M., HCC2429” value in assay [6] amounted to 30 ng Ab/mL.
